Test results as given in US7507717B2 (Xenome Ltd., priority 2002, dated 2009).
Residues, ends and D or L forms follow the SMILES beside them.

These compounds were tested against T1, human noradrenaline transporter (hNET) (Homo sapiens, UniProt P23975) (assay: biochemical). Details: Av IC50 Displacement of 3H-nisoxetine from hNET.
T1 construct: expressed in transfected cells; host or cells: COS-7 cells (ATCC), transient transfection with metafectene
Type: binding

T1 sequence (P23975 whole entry): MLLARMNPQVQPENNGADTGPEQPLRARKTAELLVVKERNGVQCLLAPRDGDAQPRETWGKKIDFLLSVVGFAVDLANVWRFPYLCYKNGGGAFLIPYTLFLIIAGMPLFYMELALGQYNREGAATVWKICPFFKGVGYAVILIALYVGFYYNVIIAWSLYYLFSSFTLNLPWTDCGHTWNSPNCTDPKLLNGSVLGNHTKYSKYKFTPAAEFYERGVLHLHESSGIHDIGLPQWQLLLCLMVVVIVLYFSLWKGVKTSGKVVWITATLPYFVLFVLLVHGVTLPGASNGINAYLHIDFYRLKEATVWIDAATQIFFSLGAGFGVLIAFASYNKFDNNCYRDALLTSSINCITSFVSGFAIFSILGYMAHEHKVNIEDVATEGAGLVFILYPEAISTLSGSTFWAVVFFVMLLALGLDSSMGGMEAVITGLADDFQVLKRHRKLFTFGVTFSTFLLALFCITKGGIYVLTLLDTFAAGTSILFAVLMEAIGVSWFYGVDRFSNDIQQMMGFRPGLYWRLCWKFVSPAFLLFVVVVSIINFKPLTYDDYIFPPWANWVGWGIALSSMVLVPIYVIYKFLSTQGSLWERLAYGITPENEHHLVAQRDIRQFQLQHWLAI

SMILES	IC50 [µM]
CC[C@H](C)[C@H](NC(=O)CN)C(=O)N[C@@H](CC(C)C)C(=O)N[C@@H](CCCNC(=N)N)C(=O)N[C@@H](CC(N)=O)C(=O)NCC(=O)N[C@H](C(=O)N[C@H]1CSSC[C@@H](C(N)=O)NC(=O)[C@@H]2CCCN2C(=O)[C@H](Cc2c[nH]cn2)NC(=O)[C@@H]2CSSC[C@H](NC1=O)C(=O)NCC(=O)N[C@@H](Cc1ccc(O)cc1)C(=O)N[C@@H](CCCCN)C(=O)N[C@@H](CC(C)C)C(=O)N2)C(C)C [compound 105] (HELM PEPTIDE1{G.I.L.R.N.G.V.C.C.G.Y.K.L.C.H.P.C.[am]}$PEPTIDE1,PEPTIDE1,8:R3-17:R3|PEPTIDE1,PEPTIDE1,9:R3-14:R3$$$V2.0)	0.759
CC(C)C[C@@H]1NC(=O)[C@H](CCCCN)NC(=O)[C@H](Cc2ccc(O)cc2)NC(=O)CNC(=O)[C@@H]2CSSC[C@H](NC1=O)C(=O)N[C@@H](Cc1c[nH]cn1)C(=O)N1CCC[C@H]1C(=O)N[C@H](C(N)=O)CSSC[C@H](NC(=O)[C@@H](NC(=O)[C@H](CCCCN)NC(=O)[C@@H](N)CC(N)=O)C(C)C)C(=O)N2 [compound 122] (HELM PEPTIDE1{N.K.V.C.C.G.Y.K.L.C.H.P.C.[am]}$PEPTIDE1,PEPTIDE1,4:R3-13:R3|PEPTIDE1,PEPTIDE1,5:R3-10:R3$$$V2.0)	1.32
CC(C)C[C@@H]1NC(=O)[C@H](CCCCN)NC(=O)[C@H](CCCCN)NC(=O)CNC(=O)[C@@H]2CSSC[C@H](NC1=O)C(=O)N[C@@H](Cc1c[nH]cn1)C(=O)N1CCC[C@H]1C(=O)N[C@H](C(N)=O)CSSC[C@H](NC(=O)[C@@H](NC(=O)CNC(=O)[C@H](CC(N)=O)NC(=O)[C@@H](N)Cc1ccc(O)cc1)C(C)C)C(=O)N2 [compound 201] (HELM PEPTIDE1{Y.N.G.V.C.C.G.K.K.L.C.H.P.C.[am]}$PEPTIDE1,PEPTIDE1,5:R3-14:R3|PEPTIDE1,PEPTIDE1,6:R3-11:R3$$$V2.0)	437
CC(C)C[C@@H]1NC(=O)[C@H](CCCCN)NC(=O)[C@H](Cc2ccc(O)cc2)NC(=O)CNC(=O)[C@@H]2CSSC[C@H](NC1=O)C(=O)N[C@@H](CCCNC(=N)N)C(=O)N[C@@H](C)C(=O)N[C@H](C(N)=O)CSSC[C@H](NC(=O)[C@@H](NC(=O)CNC(=O)[C@H](CCCNC(=N)N)NC(=O)[C@@H](N)Cc1c[nH]c3ccccc13)C(C)C)C(=O)N2 [compound 38]	0.102
CC(C)C[C@@H]1NC(=O)[C@H](CCCCN)NC(=O)[C@H](Cc2ccc(O)cc2)NC(=O)CNC(=O)[C@@H]2CSSC[C@H](NC1=O)C(=O)N[C@@H](Cc1c[nH]c3ccccc13)C(=O)N1CCC[C@H]1C(=O)N[C@H](C(N)=O)CSSC[C@H](NC(=O)[C@@H](NC(=O)CNC(=O)[C@H](CC(N)=O)NC(=O)[C@@H](N)Cc1ccc(O)cc1)C(C)C)C(=O)N2 [compound 91]	0.389
CC(C)C[C@H](NC(=O)CNC(=O)[C@H](CCCNC(=N)N)NC(=O)[C@@H](N)Cc1c[nH]c2ccccc12)C(=O)N[C@H]1CSSC[C@@H](C(N)=O)NC(=O)CNC(=O)[C@H](CCCNC(=N)N)NC(=O)[C@@H]2CSSC[C@H](NC1=O)C(=O)NCC(=O)N[C@@H](Cc1ccc(O)cc1)C(=O)N[C@@H](CCCCN)C(=O)N[C@@H](CC(C)C)C(=O)N2 [compound 64] (HELM PEPTIDE1{W.R.G.L.C.C.G.Y.K.L.C.R.G.C.[am]}$PEPTIDE1,PEPTIDE1,5:R3-14:R3|PEPTIDE1,PEPTIDE1,6:R3-11:R3$$$V2.0; N-terminus and C-terminus assumed)	0.191
CC(=O)N[C@@H](CC(N)=O)C(=O)NCC(=O)N[C@H](C(=O)N[C@H]1CSSC[C@@H](C(N)=O)NC(=O)[C@@H]2CCCN2C(=O)[C@H](Cc2c[nH]cn2)NC(=O)[C@@H]2CSSC[C@H](NC1=O)C(=O)NCC(=O)N[C@@H](Cc1ccc(O)cc1)C(=O)N[C@@H](CCCCN)C(=O)N[C@@H](CC(C)C)C(=O)N2)C(C)C [compound 152]	3.63
CC(C)C[C@@H]1NC(=O)[C@H](CCCCN)NC(=O)[C@H](Cc2ccc(O)cc2)NC(=O)CNC(=O)[C@@H]2CSSC[C@H](NC1=O)C(=O)N[C@@H](Cc1c[nH]cn1)C(=O)N[C@@H](CCC(=O)O)C(=O)N[C@H](C(N)=O)CSSC[C@H](NC(=O)[C@@H](NC(=O)CNC(=O)[C@@H](N)CC(N)=O)C(C)C)C(=O)N2 [compound 159] (HELM PEPTIDE1{N.G.V.C.C.G.Y.K.L.C.H.E.C.[am]}$PEPTIDE1,PEPTIDE1,4:R3-13:R3|PEPTIDE1,PEPTIDE1,5:R3-10:R3$$$V2.0)	4.9
CC(C)C[C@@H]1NC(=O)[C@H](Cc2c[nH]cn2)NC(=O)[C@H](Cc2ccc(O)cc2)NC(=O)CNC(=O)[C@@H]2CSSC[C@H](NC1=O)C(=O)N[C@@H](Cc1c[nH]cn1)C(=O)N1CCC[C@H]1C(=O)N[C@H](C(N)=O)CSSC[C@H](NC(=O)[C@@H](NC(=O)CNC(=O)[C@@H](N)CC(N)=O)C(C)C)C(=O)N2 [compound 181] (HELM PEPTIDE1{N.G.V.C.C.G.Y.H.L.C.H.P.C.[am]}$PEPTIDE1,PEPTIDE1,4:R3-13:R3|PEPTIDE1,PEPTIDE1,5:R3-10:R3$$$V2.0)	47.9
CC(C)C[C@@H]1NC(=O)[C@H](CCCCN)NC(=O)[C@H](Cc2ccc(O)cc2)NC(=O)CNC(=O)[C@@H]2CSSC[C@H](NC1=O)C(=O)N[C@@H](Cc1c[nH]cn1)C(=O)N[C@@H](Cc1ccccc1)C(=O)N[C@H](C(N)=O)CSSC[C@H](NC(=O)[C@@H](NC(=O)CNC(=O)[C@@H](N)CC(N)=O)C(C)C)C(=O)N2 [compound 155]	4.07
CC(C)C[C@@H]1NC(=O)[C@H](CCCCN)NC(=O)[C@H](Cc2ccc(O)cc2)NC(=O)CNC(=O)[C@@H]2CSSC[C@H](NC1=O)C(=O)N[C@@H](Cc1c[nH]cn1)C(=O)N1CCC[C@H]1C(=O)N[C@H](C(N)=O)CSSC[C@H](NC(=O)[C@@H](NC(=O)CNC(=O)[C@@H](N)CCCNC(=N)N)C(C)C)C(=O)N2 [compound 98]	0.513
CC(C)C[C@@H]1NC(=O)[C@H](CCCCN)NC(=O)[C@H](Cc2ccc(O)cc2)NC(=O)CNC(=O)[C@@H]2CSSC[C@H](NC1=O)C(=O)N[C@@H](Cc1c[nH]cn1)C(=O)N1CCC[C@H]1C(=O)N[C@H](C(N)=O)CSSC[C@H](NC(=O)[C@@H](NC(=O)[C@H](CO)NC(=O)[C@@H](N)CC(N)=O)C(C)C)C(=O)N2 [compound 156] (HELM PEPTIDE1{N.S.V.C.C.G.Y.K.L.C.H.P.C.[am]}$PEPTIDE1,PEPTIDE1,4:R3-13:R3|PEPTIDE1,PEPTIDE1,5:R3-10:R3$$$V2.0)	4.27
CC(C)C[C@@H]1NC(=O)[C@H](CCCCN)NC(=O)[C@H](Cc2ccc(O)cc2)NC(=O)CNC(=O)[C@@H]2CSSC[C@H](NC1=O)C(=O)N[C@@H](CCC(N)=O)C(=O)N1CCC[C@H]1C(=O)N[C@H](C(N)=O)CSSC[C@H](NC(=O)[C@@H](NC(=O)CNC(=O)[C@H](CC(N)=O)NC(=O)[C@@H](N)Cc1ccc(O)cc1)C(C)C)C(=O)N2 [compound 163] (HELM PEPTIDE1{Y.N.G.V.C.C.G.Y.K.L.C.Q.P.C.[am]}$PEPTIDE1,PEPTIDE1,5:R3-14:R3|PEPTIDE1,PEPTIDE1,6:R3-11:R3$$$V2.0)	6.92
CC(C)C[C@@H]1NC(=O)[C@H](CCCCN)NC(=O)[C@H](Cc2ccc(O)cc2)NC(=O)CNC(=O)[C@@H]2CSSC[C@H](NC1=O)C(=O)N[C@@H](Cc1c[nH]cn1)C(=O)N[C@@H](C)C(=O)N[C@H](C(N)=O)CSSC[C@H](NC(=O)[C@@H](NC(=O)CNC(=O)[C@@H](N)CC(N)=O)C(C)C)C(=O)N2 [compound 145] (HELM PEPTIDE1{N.G.V.C.C.G.Y.K.L.C.H.A.C.[am]}$PEPTIDE1,PEPTIDE1,4:R3-13:R3|PEPTIDE1,PEPTIDE1,5:R3-10:R3$$$V2.0)	2.95
